Experimental data: patent US9656988B2 (Pharmacyclics LLC, priority 2013, dated 2017)
Like-named read-outs stand apart in the source and are kept apart here.

Molecular target: BTK (Homo sapiens (Human), UniProt Q06187)
Test: Btk in vitro inhibitory activity (one of Method A TR-FRET, Method B electrophoretic mobility shift, Method C radiometric filter binding)
Assay type: biochemical
[1] = determined using one of the methods of Example 355a, 355b and 355c, read-out: BTK IC50

Chain of BTK (Q06187 whole entry): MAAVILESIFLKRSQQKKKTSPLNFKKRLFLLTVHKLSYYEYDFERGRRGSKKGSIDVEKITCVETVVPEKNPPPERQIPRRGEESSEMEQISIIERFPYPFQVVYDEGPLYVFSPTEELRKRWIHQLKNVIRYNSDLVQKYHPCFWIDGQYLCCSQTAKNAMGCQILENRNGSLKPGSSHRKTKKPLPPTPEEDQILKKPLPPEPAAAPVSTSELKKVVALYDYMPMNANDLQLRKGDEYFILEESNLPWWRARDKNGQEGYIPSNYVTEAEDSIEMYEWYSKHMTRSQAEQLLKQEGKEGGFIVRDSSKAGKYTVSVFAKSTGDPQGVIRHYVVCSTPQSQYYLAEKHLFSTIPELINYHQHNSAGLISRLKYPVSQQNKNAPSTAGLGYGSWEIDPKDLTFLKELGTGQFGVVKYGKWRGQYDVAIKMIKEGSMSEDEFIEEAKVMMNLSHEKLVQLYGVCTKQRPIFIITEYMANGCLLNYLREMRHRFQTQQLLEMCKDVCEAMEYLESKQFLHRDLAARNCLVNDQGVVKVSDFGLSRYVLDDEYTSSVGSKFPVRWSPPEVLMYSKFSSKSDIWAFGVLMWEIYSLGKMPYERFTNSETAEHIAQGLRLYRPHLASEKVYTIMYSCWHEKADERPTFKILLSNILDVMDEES

Structure (SMILES)	IC50 (Btk (IC50)) [nM]	IC50 [1] [nM]	IC50 (read-out: Btk (IC50)) [nM]
CC(C)C1CCN(C(=O)N[C@@H]2CCCN(c3nnc(C(N)=O)c(Nc4ccc(C(=O)N5CCOCC5)cc4)n3)C2)CC1 [Example 82, (R)-3-(3-(4-isopropylpiperidine-1-carboxamido)piperidin-1-yl)-5-(4-(morpholine-4-carbonyl)phenylamino)-1,2,4-triazine-6-carboxamide]	10 to 100	10 to 100	
NC(=O)c1nnc(N2CCC[C@@H](NC(=O)C(=O)N3CCCCC3)C2)nc1Nc1ccc(C(=O)N2CCOCC2)cc1 [Example 83, (R)-5-(4-(morpholine-4-carbonyl)phenylamino)-3-(3-(2-oxo-2-(piperidin-1-yl)acetamido)piperidin-1-yl)-1,2,4-triazine-6-carboxamide]	100 to 1000	100 to 1000	
NC(=O)c1nnc(N2CCC[C@@H](NC(=O)c3ccc4ccccc4n3)C2)nc1Nc1ccc(C(=O)N2CCOCC2)cc1 [Example 84, (R)—N-(1-(6-carbamoyl-5-(4-(morpholine-4-carbonyl)phenylamino)-1,2,4-triazin-3-yl)piperidin-3-yl)quinoline-2-carboxamide]	10 to 100	10 to 100	
NC(=O)c1nnc(N2CCC[C@@H](NC(=O)c3ccc4ncccc4c3)C2)nc1Nc1ccc(C(=O)N2CCOCC2)cc1 [Example 85, (R)—N-(1-(6-carbamoyl-5-(4-(morpholine-4-carbonyl)phenylamino)-1,2,4-triazin-3-yl)piperidin-3-yl)quinoline-6-carboxamide]	10 to 100	10 to 100	
NC(=O)c1nnc(N2CCC[C@@H](NC(=O)c3ccc(OCC(F)(F)F)cc3)C2)nc1Nc1ccc(C(=O)N2CCOCC2)cc1 [Example 86, (R)-5-(4-(morpholine-4-carbonyl)phenylamino)-3-(3-(4-(2,2,2-trifluoroethoxy)benzamido)piperidin-1-yl)-1,2,4-triazine-6-carboxamide]			< 10
CCOc1ccc(C(=O)N[C@@H]2CCCN(c3nnc(C(N)=O)c(Nc4ccc(C(=O)N5CCOCC5)cc4)n3)C2)cc1 [Example 88, (R)-3-(3-(4-ethoxybenzamido)piperidin-1-yl)-5-(4-(morpholine-4-carbonyl)phenylamino)-1,2,4-triazine-6-carboxamide]		< 10	< 10
CCCOc1ccc(C(=O)N[C@@H]2CCCN(c3nnc(C(N)=O)c(Nc4ccc(C(=O)N5CCOCC5)cc4)n3)C2)cc1 [Example 89, (R)-5-(4-(morpholine-4-carbonyl)phenylamino)-3-(3-(4-propoxybenzamido)piperidin-1-yl)-1,2,4-triazine-6-carboxamide]		< 10	< 10
CC(C)Oc1ccc(C(=O)N[C@@H]2CCCN(c3nnc(C(N)=O)c(Nc4ccc(C(=O)N5CCOCC5)cc4)n3)C2)cc1 [Example 90, (R)-5-(4-(morpholine-4-carbonyl)phenylamino)-3-(3-(4-isopropoxybenzamido)piperidin-1-yl)-1,2,4-triazine-6-carboxamide]		10 to 100	10 to 100
Cc1cc(C(=O)N[C@@H]2CCCN(c3nnc(C(N)=O)c(Nc4ccc(C(=O)N5CCOCC5)cc4)n3)C2)no1 [Example 91, (R)—N-(1-(6-carbamoyl-5-(4-(morpholine-4-carbonyl)phenylamino)-1,2,4-triazin-3-yl)piperidin-3-yl)-5-methylisoxazole-3-carboxamide]	10 to 100	10 to 100	
Cc1ncc(C(=O)N[C@@H]2CCCN(c3nnc(C(N)=O)c(Nc4ccc(C(=O)N5CCOCC5)cc4)n3)C2)s1 [Example 93, (R)—N-(1-(6-carbamoyl-5-(4-(morpholine-4-carbonyl)phenylamino)-1,2,4-triazin-3-yl)piperidin-3-yl)-2-methylthiazole-5-carboxamide]			< 10
NC(=O)c1nnc(N2CCC[C@@H](NC(=O)c3nc4ccccc4s3)C2)nc1Nc1ccc(C(=O)N2CCOCC2)cc1 [Example 94, (R)—N-(1-(6-carbamoyl-5-(4-(morpholine-4-carbonyl)phenylamino)-1,2,4-triazin-3-yl)piperidin-3-yl)benzo[d]thiazole-2-carboxamide]			< 10
NC(=O)c1nnc(N2CCC[C@@H](NC(=O)c3cc(C4CC4)on3)C2)nc1Nc1ccc(C(=O)N2CCOCC2)cc1 [Example 95, (R)—N-(1-(6-carbamoyl-5-(4-(morpholine-4-carbonyl)phenylamino)-1,2,4-triazin-3-yl)piperidin-3-yl)-5-cyclopropylisoxazole-3-carboxamide]		10 to 100	10 to 100
NC(=O)c1nnc(N2CCC[C@@H](NC(=O)c3ccc(Oc4ccccc4)cc3)C2)nc1Nc1ccc(C(=O)N2CCOCC2)cc1 [Example 96, (R)-5-(4-(morpholine-4-carbonyl)phenylamino)-3-(3-(4-phenoxybenzamido)piperidin-1-yl)-1,2,4-triazine-6-carboxamide]		10 to 100	
NC(=O)c1nnc(N2CCC[C@@H](NC(=O)c3nc4ccccc4o3)C2)nc1Nc1ccc(C(=O)N2CCOCC2)cc1 [Example 97, (R)—N-(1-(6-carbamoyl-5-(4-(morpholine-4-carbonyl)phenylamino)-1,2,4-triazin-3-yl)piperidin-3-yl)benzo[d]oxazole-2-carboxamide]		10 to 100	10 to 100
CCN(CC)C(=O)N[C@@H]1CCCN(c2nnc(C(N)=O)c(Nc3ccc(C(=O)N4CCOCC4)cc3)n2)C1 [Example 99, (R)-3-(3-(3,3-diethylureido)piperidin-1-yl)-5-(4-(morpholine-4-carbonyl)phenylamino)-1,2,4-triazine-6-carboxamide]			< 10
NC(=O)c1nnc(N2CCC[C@@H](NC(=O)c3ccc4c(c3)nnn4C3CC3)C2)nc1Nc1ccc(C(=O)N2CCOCC2)cc1 [Example 102, (R)—N-(1-(6-carbamoyl-5-(4-(morpholine-4-carbonyl)phenylamino)-1,2,4-triazin-3-yl)piperidin-3-yl)-1-cyclopropyl-1H-benzo[d][1,2,3]triazole-5-carboxamide]		< 10	< 10
CCCn1nnc2cc(C(=O)N[C@@H]3CCCN(c4nnc(C(N)=O)c(Nc5ccc(C(=O)N6CCOCC6)cc5)n4)C3)ccc21 [Example 103, (R)—N-(1-(6-carbamoyl-5-(4-(morpholine-4-carbonyl)phenylamino)-1,2,4-triazin-3-yl)piperidin-3-yl)-1-propyl-1H-benzo[d][1,2,3]triazole-5-carboxamide]		< 10	10 to 100
NC(=O)c1nnc(N2CCC[C@@H](N3Cc4ccccc4C3=O)C2)nc1Nc1ccc(C(=O)N2CCOCC2)cc1 [Example 104, (R)-5-(4-(morpholine-4-carbonyl)phenylamino)-3-(3-(1-oxoisoindolin-2-yl)piperidin-1-yl)-1,2,4-triazine-6-carboxamide]		10 to 100	
CC#CC(=O)N1CCC[C@@H](Nc2nnc(C(N)=O)c(Nc3ccc(S(C)(=O)=O)cc3)n2)C1 [Example 105, (R)-3-(1-but-2-ynoylpiperidin-3-ylamino)-5-(4-(methylsulfonyl)phenylamino)-1,2,4-triazine-6-carboxamide]		< 10	
CN(C)C/C=C/C(=O)N1CCC[C@@H](Nc2nnc(C(N)=O)c(Nc3ccc(S(C)(=O)=O)cc3)n2)C1 [Example 106, (R,E)-3-(1-(4-(dimethylamino)but-2-enoyl)piperidin-3-ylamino)-5-(4-(methylsulfonyl)phenylamino)-1,2,4-triazine-6-carboxamide]		< 10	
CN(C/C=C/C(=O)N1CCC[C@@H](Nc2nnc(C(N)=O)c(Nc3ccc(S(C)(=O)=O)cc3)n2)C1)C1CC1 [Example 107, (R,E)-3-(1-(4-(cyclopropyl(methyl)amino)but-2-enoyl)piperidin-3-ylamino)-5-(4-(methylsulfonyl)phenylamino)-1,2,4-triazine-6-carboxamide]		< 10	
NC(=O)c1nnc(N2CCC[C@@H](NC(=O)N3CCCCC3)C2)nc1Nc1cnc2ccccc2c1 [Example 108, (R)-3-(3-(piperidine-1-carboxamido)piperidin-1-yl)-5-(quinolin-3-ylamino)-1,2,4-triazine-6-carboxamide]		100 to 1000	
NC(=O)c1nnc(N2CCC[C@@H](NC(=O)N3CCCCC3)C2)nc1Nc1ccc2cccnc2c1 [Example 109, (R)-3-(3-(piperidine-1-carboxamido)piperidin-1-yl)-5-(quinolin-7-ylamino)-1,2,4-triazine-6-carboxamide]		100 to 1000	
CCOc1ccc(Nc2nc(N3CCC[C@@H](NC(=O)c4ccc(OC)cc4)C3)cnc2C(N)=O)cc1 [Example 111, (R)-3-(4-ethoxyphenylamino)-5-(3-(4-methoxybenzamido)piperidin-1-yl)pyrazine-2-carboxamide]		10 to 100	10 to 100
COCCOc1ccc(Nc2nc(N3CCC[C@@H](NC(=O)c4ccc(OC)cc4)C3)cnc2C(N)=O)cc1 [Example 112, (R)-5-(3-(4-methoxybenzamido)piperidin-1-yl)-3-(4-(2-methoxyethoxy)phenylamino)pyrazine-2-carboxamide]		10 to 100	10 to 100
CCOCCOc1ccc(Nc2nc(N3CCC[C@@H](NC(=O)c4ccc(OC)cc4)C3)cnc2C(N)=O)cc1 [Example 113, (R)-3-(4-(2-ethoxyethoxy)phenylamino)-5-(3-(4-methoxybenzamido)piperidin-1-yl)pyrazine-2-carboxamide]		10 to 100	
COc1ccc(C(=O)N[C@@H]2CCCN(c3cnc(C(N)=O)c(Nc4ccc(OCCN(C)C)cc4)n3)C2)cc1 [Example 115, (R)-3-(4-(2-(dimethylamino)ethoxy)phenylamino)-5-(3-(4-methoxybenzamido)piperidin-1-yl)pyrazine-2-carboxamide]		< 10	
COc1ccc(C(=O)N[C@@H]2CCCN(c3cnc(C(N)=O)c(Nc4ccc(OCC[N+](C)(C)[O-])cc4)n3)C2)cc1 [Example 116, (R)-2-(4-(3-carbamoyl-6-(3-(4-methoxybenzamido)piperidin-1-yl)pyrazin-2-ylamino)phenoxy)-N,N-dimethylethanamine oxide]		10 to 100	
COc1ccc(C(=O)N[C@@H]2CCCN(c3cnc(C(N)=O)c(Nc4ccc(S(C)(=O)=O)cc4)n3)C2)cc1 [Example 117, (R)-5-(3-(4-methoxybenzamido)piperidin-1-yl)-3-(4-(methylsulfonyl)phenylamino)pyrazine-2-carboxamide]		< 10	
